Assay results as given in patent US20220411362A1, “DITERPENOID COMPOUNDS THAT ACT ON PROTEIN KINASE C (PKC)” (K-Gen, Inc., priority 2019, published 2022).
Read-outs that look alike come from different tables or passages of the source.

Experiments:
C1b domain of human PKCδ = target: T1, C1b domain of human PKCδ (Homo sapiens, UniProt Q05655); experiment: Competitive 3H-PDBu binding to C1b domain of PKCδ; details: Ki PKCδ, 3H-PDBu competition
T1 construct: Genes encoding C1b domains of human PKCα, δ, ε, θ, and PKD1 (PKCμ) were synthesized; made in house; host or cells: E. coli BL21(DE3)
T1 sequence (Q05655 230-280 limits assumed): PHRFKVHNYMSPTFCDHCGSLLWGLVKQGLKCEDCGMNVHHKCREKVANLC
Procedure: (§1) Compounds described in this disclosure were tested for binding affinity to C1b domain of PKC isoforms. Compound binding affinity to C1b domain of PKC isoforms was derived from competitive binding assay using radioactive tracer ^3H-PDBu and recombinant GST-C1b or full-length of human PKC proteins based on modified procedures from Methods in Molecular Biology, vol.
(§2) Genes encoding C1b domains of human PKCα, δ, ε, θ, and PKD1 (PKCμ) were synthesized and inserted into pGEX-2TK or pGEX-4T1 vectors for expression and production of GST-C1b proteins in E. coli BL21(DE3) via IPTG induction. The target proteins were purified by glutathione sepharose 4B and followed by ion exchange chromatography if needed to achieve purity >70%. Aliquots of the purified proteins were stored at −80 degree for binding assay (storage buffer: 20 mM Tris pH 8.0, 200 mM NaCl, 10% glycerol, 1 mM DTT).
(§3) The plate was incubated at 37° C. on a shaker at 300 rpm for 10 minutes and then put on ice for 20 minutes. […] The bottom of the filter plate was sealed and 50 μL of MicroScint-20 (PerkinElmer) cocktail was added to each well. ^3H-PDBu trapped in each well was counted using PerkinElmer MicroBeta2 Reader. Data were analyzed using GraphPad Prism5 with the model “log(inhibitor) vs. response-variable slope” to fit the IC50, and then IC50 was transformed to Ki using Cheng-Prusoff equation: Ki=IC50/(1+added radio ligand/Kd). Kd is the binding affinity of each protein preparation to ^3H-PDBu, determined experimentally.

C1b domain of human PKCα = target: T2, C1b domain of human PKCα (Homo sapiens, UniProt P17252); experiment: biochemical; type: binding; details: Ki PKCα, 3H-PDBu competition
T2 construct: Genes encoding C1b domains of human PKCα, δ, ε, θ, and PKD1 (PKCμ) were synthesized; made in house; host or cells: E. coli BL21(DE3)
Procedure: as §1, §2
The plate was incubated at 37° C. on a shaker at 300 rpm for 10 minutes and then put on ice for 20 minutes. […] The bottom of the filter plate was sealed and 50 μL of MicroScint-20 (PerkinElmer) cocktail was added to each well. ^3H-PDBu trapped in each well was counted using PerkinElmer MicroBeta2 Reader. […] Kd is the binding affinity of each protein preparation to ^3H-PDBu, determined experimentally.

[1] = target: T3, C1b domain of human PKD1 (PKCμ) (Homo sapiens, UniProt Q15139); experiment: biochemical; type: binding
T3 construct: Genes encoding C1b domains of human PKCα, δ, ε, θ, and PKD1 (PKCμ) were synthesized; made in house; host or cells: E. coli BL21(DE3)
T3 sequence (Q15139 270-320 limits assumed): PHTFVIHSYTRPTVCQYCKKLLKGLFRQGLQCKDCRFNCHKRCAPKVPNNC
Procedure: as §1, §2, §3

[2] = system: A549 non-small cell lung cancer cell line; experiment: Proliferation of A549 (CellTiter Glo); type: cell-based; details: Homo sapiens, read-out: IC50 μM (A549 Cell Line)
Procedure: The diterpenoid compounds were tested in A549, a non-small cell lung cancer cell line harboring a K-Ras activating mutation. Briefly, A549 cells at a density of 1,000 cells/well were seeded in 96-well plates and incubated at 37° C. for 24 hours. A series of different concentrations of compound stocks (500×) were prepared by 3-fold serial dilution in DMSO. These compounds were further diluted in culture media and then added to cells so that the final DMSO concentration was not exceeding 0.25%. After 96 hours of incubation, 50 μL of CellTiter Glo reagent (Promega) was added to each well and luminescence was measured after 10 minutes using EnVision (PerkinElmer). Luminescence from cells treated with DMSO alone was set as Max and % of inhibition was calculated as follows: Inhibition %=(Max−Sample value)/Max×100. Data was analyzed using XL-fit software (ID Business Solutions Ltd.) and IC50, relative IC50, and % of top inhibition was calculated. Some of the compounds in this disclosure were very potent in blocking proliferation of A549 lung cancer cells at low nM range. In addition, potency of inhibiting A549 proliferation correlated well with its binding affinity to PKCs for this series of compounds. In other words, higher affinity binders had stronger inhibitory effects on A549 proliferation. This further support the notion that activation, rather than inhibition, of certain PKC isoforms is required to block proliferation of cancer cells, some of which may harbor K-Ras mutations. This is in sharp contrast to previous literature and common belief that inhibition of PKC is necessary to block cancer cell growth (Kang, 2014, New Journal of Science, 2014:1-36). Data presented here is in agreement with recent findings that many loss-of-function but not gain-of-function mutations of PKC isoforms have been identified in many human cancers (Antal et al., 2015, Cell, 160:489-502).

[3] = A549, 96 hours incubation, CellTiter Glo

SMILES	Ki (C1b domain of human PKCδ)	Ki (C1b domain of human PKCα)	Ki [1]	IC50 ([2]; A549, 96 h)	IC50 [2, 3]
CC1=C[C@H]2[C@@]3(O)[C@H](C)C[C@]4(OC(=O)[C@@H](N)Cc5c[nH]c6ccccc56)[C@H]([C@@H]3C=C(CO)C[C@]2(O)C1=O)C4(C)C [Compound K101-C1340]	1 to 30 nM	200 to 400 nM	5 to 10 nM	10 to 30 µM	
CN[C@@H](CC1CCCCC1)C(=O)O[C@@]12C[C@@H](C)[C@@]3(O)[C@@H](C=C(CO)C[C@]4(O)C(=O)C(C)=C[C@@H]34)[C@@H]1C2(C)C [Compound K101-C1364]	1 to 30 nM	200 to 400 nM		0.2 to 0.6 µM	
CC1=C[C@H]2[C@@]3(O)[C@H](C)C[C@]4(OC(=O)CCc5cnn(C)c5)[C@H]([C@@H]3C=C(CO)C[C@]2(O)C1=O)C4(C)C [Compound K101-C1323]	200 to 400 nM	> 8000 nM	100 to 200 nM	2 to 5 µM	
CC1=C[C@H]2[C@@]3(O)[C@H](C)C[C@]4(OC(=O)CCCCCCCCCCCC(=O)O)[C@H]([C@@H]3C=C(CO)C[C@]2(O)C1=O)C4(C)C [Compound K101-C1335]	200 to 400 nM	> 8000 nM		10 to 30 µM	
CC1=C[C@H]2[C@@]3(O)[C@H](C)C[C@]4(OC(=O)CCCCCCCCCCC(=O)O)[C@H]([C@@H]3C=C(CO)C[C@]2(O)C1=O)C4(C)C [Compound K101-C1334]	400 to 800 nM	> 8000 nM	30 to 60 nM	10 to 30 µM	
CSCC[C@H](N)C(=O)O[C@@]12C[C@@H](C)[C@@]3(O)[C@@H](C=C(CO)C[C@]4(O)C(=O)C(C)=C[C@@H]34)[C@@H]1C2(C)C [Compound K101-C1338]	100 to 200 nM	2000 to 4000 nM	30 to 60 nM	5 to 10 µM	
CC1=C[C@H]2[C@@]3(O)[C@H](C)C[C@]4(OC(=O)CCc5scnc5C)[C@H]([C@@H]3C=C(CO)C[C@]2(O)C1=O)C4(C)C [Compound K101-C1320]	30 to 60 nM	2000 to 4000 nM	1 to 30 nM	0.2 to 0.6 µM	
CC1=C[C@H]2[C@@]3(O)[C@H](C)C[C@]4(OC(=O)C[C@@H](N)Cc5ccccc5)[C@H]([C@@H]3C=C(CO)C[C@]2(O)C1=O)C4(C)C [Compound K101-C1344]	30 to 60 nM	1000 to 2000 nM	1 to 30 nM	1 to 2 µM	
CC1=C[C@H]2[C@@]3(O)[C@H](C)C[C@]4(OC(=O)[C@@H](N)C56CC(F)(C5)C6)[C@H]([C@@H]3C=C(CO)C[C@]2(O)C1=O)C4(C)C [Compound K101-C137302]					10 to 30 µM
CC1=C[C@H]2[C@@]3(O)[C@H](C)C[C@]4(OC(=O)[C@@H](N)C5Cc6ccccc6C5)[C@H]([C@@H]3C=C(CCl)C[C@]2(O)C1=O)C4(C)C [K101-C1329-Cl]					0.06 to 0.1 µM
CC1=C[C@H]2[C@@]3(O)[C@H](C)C[C@]4(OC(=O)[C@@H](N)CC5CCC5)[C@H]([C@@H]3C=C(CO)C[C@]2(O)C1=O)C4(C)C [Compound K101-C1325]	30 to 60 nM	4000 to 6000 nM	30 to 60 nM	1 to 2 µM	
CC1=C[C@H]2[C@@]3(O)[C@H](C)C[C@]4(OC(=O)[C@@H](N)C56CC(C(F)(F)F)(C5)C6)[C@H]([C@@H]3C=C(CO)C[C@]2(O)C1=O)C4(C)C [Compound K101-C1375]					0.06 to 0.1 µM
CC1=C[C@H]2[C@@]3(O)[C@H](C)C[C@]4(OC(=O)[C@@H](N)CC5CCCC5)[C@H]([C@@H]3C=C(CO)C[C@]2(O)C1=O)C4(C)C [Compound K101-C1332]	5 to 10 nM	100 to 200 nM	5 to 10 nM	0.1 to 0.2 µM	
CC1=C[C@H]2[C@@]3(O)[C@H](C)C[C@]4(OC(=O)[C@H](N)Cc5c[nH]c6ccccc56)[C@H]([C@@H]3C=C(CO)C[C@]2(O)C1=O)C4(C)C [Compound K101-C1341]	30 to 60 nM	1000 to 2000 nM	1 to 30 nM	10 to 30 µM	
CC1=C[C@H]2[C@@]3(O)[C@H](C)C[C@]4(OC(=O)C[C@H](N)c5ccccc5)[C@H]([C@@H]3C=C(CO)C[C@]2(O)C1=O)C4(C)C [Compound K101-C1343]	30 to 60 nM	1000 to 2000 nM	1 to 30 nM	1 to 2 µM	
CC1=C[C@H]2[C@@]3(O)[C@H](C)C[C@]4(OC(=O)[C@H](N)CCCCCCc5ccccc5)[C@H]([C@@H]3C=C(COC(=O)[C@@H](N)C(C)C)C[C@]2(O)C1=O)C4(C)C [K101-C134801C2003]					0.03 to 0.06 µM
CC1=C[C@H]2[C@@]3(O)[C@H](C)C[C@]4(OC(=O)C[C@@H](N)CCc5ccccc5)[C@H]([C@@H]3C=C(CO)C[C@]2(O)C1=O)C4(C)C [Compound K101-C1350]	1 to 30 nM	400 to 800 nM	< 5 nM	0.6 to 1 µM	
CC1=C[C@H]2[C@@]3(O)[C@H](C)C[C@]4(OC(=O)[C@@H](N)CC(C)(C)C)[C@H]([C@@H]3C=C(CO)C[C@]2(O)C1=O)C4(C)C [Compound K101-C1328]	1 to 30 nM	200 to 400 nM	< 5 nM	0.2 to 0.6 µM	
CC1=C[C@H]2[C@@]3(O)[C@H](C)C[C@]4(OC(=O)[C@@H](N)CC5CC5)[C@H]([C@@H]3C=C(CO)C[C@]2(O)C1=O)C4(C)C [Compound K101-C1330]		1000 to 2000 nM	30 to 60 nM	2 to 5 µM	
CC1=C[C@H]2[C@@]3(O)[C@H](C)C[C@]4(OC(=O)[C@H](N)C56CC(F)(C5)C6)[C@H]([C@@H]3C=C(CO)C[C@]2(O)C1=O)C4(C)C [Compound K101-C137301]					10 to 30 µM
CSC[C@H](N)C(=O)O[C@@]12C[C@@H](C)[C@@]3(O)[C@@H](C=C(CO)C[C@]4(O)C(=O)C(C)=C[C@@H]34)[C@@H]1C2(C)C [Compound K101-C1339]	200 to 400 nM	4000 to 6000 nM		5 to 10 µM	
CC1=C[C@H]2[C@@]3(O)[C@H](C)C[C@]4(OC(=O)[C@@H](N)CCc5ccccc5)[C@H]([C@@H]3C=C(CO)C[C@]2(O)C1=O)C4(C)C [Compound K101-C135602]	1 to 30 nM	200 to 400 nM			
CC1=C[C@H]2[C@@]3(O)[C@H](C)C[C@]4(OC(=O)[C@H](O)Cc5ccccc5)[C@H]([C@@H]3C=C(CO)C[C@]2(O)C1=O)C4(C)C [Compound K101-C1355]	100 to 200 nM		30 to 60 nM	2 to 5 µM	
